Laboratory results taken from PMC8998803, “Fragment-Based Discovery of AF9 YEATS Domain Inhibitors” (International Journal of Molecular Sciences, 2022).

Legend:
AF9 YEATS domain [1] = target: T1, AF9 YEATS domain (Homo sapiens, UniProt P42568); test: NMR chemical shift perturbation titration of 15N-labeled AF9 YEATS domain; format: binding; settings: for Kd: from dose-dependent chemical shift perturbations, ± fitting error; for LE: ligand efficiency, Table 1
T1 construct: DNA fragment encoding AF9 YEATS domain (residues 1–138) was amplified and cloned into the pET28a vector; made in house; host or cells: Escherichia coli BL21 (DE3)
T1 sequence (P42568 1-138): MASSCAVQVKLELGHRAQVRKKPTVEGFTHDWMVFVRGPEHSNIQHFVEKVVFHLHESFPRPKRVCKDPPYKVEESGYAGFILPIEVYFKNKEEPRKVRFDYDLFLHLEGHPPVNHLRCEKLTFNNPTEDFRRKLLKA
From the text: (§1) To further validate the results of ligand-observed fragment-based screening, we titrated these hits with the ^15N-labeled AF9 YEATS domain (Figure 1B). The backbone chemical shift assignment was retrieved from the literature. […] These residues were then mapped to the surface of the crystal structure of the AF9 YEATS domain in complex with H3K9ac (PDB code: 4TMP), which indicated the binding of these hits to the same pocket for acyl-lysine recognition (Figure 1D). The binding affinity of hit 2 was then determined by best fitting the dose-dependent CSPs of these residues (Figure 1E) at 0.07 ± 0.01 mM (fitting error was used henceforth unless specifically annotated). The affinity of hit 2 was further validated using isothermal titration calorimetry (ITC) (Figure 1F). The binding affinity of the other hits was determined using the same approach (Table 1). These four hits probably bound to the same pocket since they shared the same pharmacophore.
The ^15N-labeled AF9 YEATS domain was concentrated to 0.1 mM in phosphate buffered saline at pH 6.8. The HSQC spectra were acquired on the Agilent 500 MHz spectrometer at a ligand/protein molar ratio varying from 0 to 8.0. The dissociation constant Kd was best-fitted using the following equation assuming a 1:1 binding mode, Δδobs=ΔδmaxPt+Lt+Kd−Pt+Lt+Kd^2−4PtLt/2Pt where Pt and Lt represented the total concentrations of the protein and the ligand, respectively, and the Δδobs denoted the observed chemical shift changes relative to the free-form protein. Δδobs was defined as 1/2δH2+0.04δN2 , where δH and δN were the chemical shift changes in the ^1H and ^15N dimension, respectively. The maximum of the chemical shift perturbations Δδmax and the dissociation constant Kd were best-fitted from the dose-dependent chemical shift changes

ENL YEATS domain = target: T2, ENL YEATS domain (Homo sapiens, UniProt Q03111); test: NMR chemical shift perturbation titration of ENL YEATS; format: binding; settings: determined by CSPs, read-out: affinity
T2 construct: determined from the dose-dependent chemical shift perturbations of ENL YEATS
T2 sequence (Q03111 1-138 limits assumed): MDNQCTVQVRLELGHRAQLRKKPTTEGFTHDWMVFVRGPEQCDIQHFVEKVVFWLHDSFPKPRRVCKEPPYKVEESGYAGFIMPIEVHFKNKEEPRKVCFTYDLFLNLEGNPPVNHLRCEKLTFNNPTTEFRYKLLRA
Method: (§2) It is, therefore, difficult to achieve a high selectivity between AF9 and ENL YEATS domains, as underscored by the similar affinity of compound 10 to both AF9 and ENL (38 ± 6 μM) determined by CSPs (Figure 4C), even though compound 10 represented a new chemotype with a binding mode distinct from that of SGC-iMLLT (Figure 4B). […] Therefore, compound 10 was a dual inhibitor of AF9/ENL YEATS domains.
(§3) Figure 4 Selectivity analysis of AF9 inhibitors among human YEATS domains and antiproliferation activities. (A) Sequence alignment of human YEATS domains. Conserved residues are highlighted, with residues interacting with H3K9ac annotated. (B) Superimposition of AF9 and ENL YEATS domain structures in complex with 10 (carbon atom in magenta) and SGC-iMLLT (PDB code: 6HT1), respectively. The hydrogen bonds are delineated by dashed lines. (C) The binding affinity of 10 determined from the dose-dependent chemical shift perturbations of ENL YEATS. The Kd value with the fitting error is annotated. (D) Chemical shift perturbations of the ^15N-labeled YEATS2 YEATS domain induced by 10. (E) The binding affinity of 10 estimated from best fitting of the dose-dependent chemical shift perturbations of the YEATS2 YEATS domain. (F) Viability of MCF7 and AF9-sensitive HGC-27 cells upon treatment with inhibitors at a single dose of 100 μM. […]

YEATS2 YEATS domain = target: T3, YEATS2 YEATS domain (Homo sapiens, UniProt Q9ULM3); test: NMR chemical shift perturbation titration of 15N-labeled YEATS2 YEATS domain; format: binding
T3 construct: Chemical shift perturbations of the ^15N-labeled YEATS2 YEATS domain induced by 10
T3 sequence (Q9ULM3 200-345 limits assumed): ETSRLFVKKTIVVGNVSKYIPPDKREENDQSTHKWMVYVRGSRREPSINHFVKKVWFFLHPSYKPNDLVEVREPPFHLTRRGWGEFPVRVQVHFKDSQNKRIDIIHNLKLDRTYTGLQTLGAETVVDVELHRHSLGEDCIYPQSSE
Method: as §2, §3

NCL-H1975 cells = test: Cell viability, NCL-H1975; format: cell-based; settings: single dose of 100 μM; AF9-sensitive cell line
MCF7 cells = test: Cell Counting Kit-8 (CCK-8) cell viability assay, MCF7; settings: single dose of 100 μM
Method: (§4) We further assessed the cellular activity of these inhibitors in cancer cells.
(§5) Human MCF7 and HGC-27 cell lines were cultured at 37 °C in a humidified 5% CO2 atmosphere in DMEM (Gibco, Stony Plain, AB, Canada) medium supplemented with 10% fetal bovine serum (FBS) (Gibco) and 1 × penicillin/streptomycin (Gibco). MCF7 and HGC-27 cells were seeded in 96-well plates with approximately 10^4 cells in 100 μL of the medium and treated with the following conditions: fresh culture medium with DMSO (control) or fresh culture medium with inhibitors at a concentration of 100 μM. Cell viability was measured using a Cell Counting Kit-8 (Purchased from TargetMol, Boston, MA, USA) according to manufacturer’s instructions [45]. The absorbance was read at 450 nm with a microplate reader (CLARIOstar, BMG LABTECH, Ortenberg, Germany). Cell viability was calculated as the ratio of experimental group absorbance vs. control group absorbance.

HGC-27 cells = test: Cell Counting Kit-8 (CCK-8) cell viability assay, HGC-27; settings: AF9-sensitive HGC-27 cells
Method: as §4, §5

MCF7 = tested on: MCF7; set-up: method as in PMID 30288907; settings: cited from earlier work
[2] = tested on: the rest of the 59 cell lines; set-up: method as in PMID 30288907; settings: cited from earlier work
AF9 YEATS domain [3] = target: T1, AF9 YEATS domain; test: Isothermal titration calorimetry with AF9 YEATS domain; format: binding
From the text: as §1
All ITC titrations were carried out on a MicroCal ITC200 calorimeter (Malvern Instruments Ltd., Malvern, UK) at 298K. The AF9 YEATS domain protein was dialyzed to 20 mM Tris buffer containing 150 mM NaCl at pH 7.4. The concentration of the protein was determined by UV-Vis spectroscopy. The compounds were dried and dissolved in the same buffer. The concentrations of compounds were determined using quantitative NMR30. The ITC data were analyzed using Origin 2019 and best-fitted to the one-site binding model to determine the enthalpies and affinity constants. The binding entropies were calculated using the Gibbs free energy equation.

SMILES | Kd (AF9 YEATS domain [1]) | LE (AF9 YEATS domain [1]) | other results
COCC(=O)Nc1ccc(Cl)c(O)c1 [Compound 6] | 61 ± 4 µM | 0.41 | change of affinity (in words) (AF9 YEATS domain [1]; relative to hit 2): did not significantly alter the affinity
COCC(=O)Nc1ccc(C)c(N)c1 [Compound 1] | 137 ± 24 µM | 0.38 | 
COCC(=O)Nc1ccc(Cl)cc1 [Compound 5] | 80 ± 60 µM | 0.43 | change of affinity (in words) (AF9 YEATS domain [1]; relative to hit 2): did not significantly alter the affinity
C[C@H]1CCCN1Cc1nc2cc(NC(=O)c3ccc4c(cnn4C)c3)ccc2[nH]1 [SGC-iMLLT] |  |  | potency in MCF7 (in words) (MCF7): weak potency; activities over the rest of the 59 cell lines (in words) [2]: almost no detectable activities
COCC(=O)Nc1ccc(Cl)c(N)c1 [Compound 2] | 70 ± 10 µM | 0.41 | ΔH (AF9 YEATS domain [3]; ITC binding enthalpy): -10 ± 2 kcal/mol; Kd (AF9 YEATS domain [3]; ITC, 1:1 binding mode, 298K): 76 ± 10 µM; -TΔS (AF9 YEATS domain [3]; ITC, entropy calculated using the Gibbs free energy equation): 4 kcal/mol
COCC(=O)Nc1ccc(N)cc1Cl [Compound 3] | 100 ± 10 µM | 0.39 | 
COCC(=O)Nc1ccc(N)cc1C [Compound 4] | 440 ± 100 µM | 0.33 | 

Now from value to compound, other results behind:

Kd (AF9 YEATS domain [1]) | LE (AF9 YEATS domain [1]) | SMILES | other results
660 ± 70 µM | 0.26 | CNCC(=O)Nc1ccc(CNC(C)=O)cc1 [Compound 9] | 
87 ± 11 µM | 0.28 | O=C(COCc1ccc(F)cc1)Nc1ccc(Cl)cc1 [Compound 12] | 
26 ± 4 µM | 0.30 | O=C(COCc1ccccc1)Nc1c(F)cc(Cl)cc1F [Compound 14] | affinity enhancement relative to that of 10 (AF9 YEATS domain [1]; AF9 YEATS): approximately 30%
310 ± 4 µM |  | COCC(=O)Nc1ccc(CNC(C)=O)cc1 [Compound 8] | 
38 ± 6 µM |  | O=C(COCc1ccccc1)Nc1ccc(Cl)cc1 [Compound 10] | enhancement of the affinity for the AF9 YEATS domain (AF9 YEATS domain [1]; relative to hit 2): approximately two-fold enhancement; Kd (ENL YEATS domain): 38 ± 6 µM; binding affinity (in words) (YEATS2 YEATS domain; chemical shift of YEATS2 only slightly disturbed): very weak binding affinity; Kd (YEATS2 YEATS domain; estimated from best fitting of dose-dependent chemical shift perturbations): > 200 µM; effect on NCL-H1975 cells (in words) (NCL-H1975 cells): demonstrated inhibitory effects; potency in MCF7 cells (in words) (MCF7 cells): weak potency; proliferation of HGC-27 cells (in words) (HGC-27 cells): suppressed the proliferation of AF9-sensitive HGC-27 cells more effectively in a dose-dependent manner
70 ± 9 µM | 0.28 | O=C(COCc1ccccc1O)Nc1ccc(Cl)cc1 [Compound 13] | 
270 ± 20 µM | 0.29 | CNC(=O)Cc1ccc(NC(=O)COC)cc1 [Compound 7] | 
88 ± 30 µM | 0.31 | O=C(COc1ccccc1)Nc1ccc(Cl)cc1 [Compound 11] | 
